Source: PubChem BioAssay (NCI)
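Results reflect a 48-hour exposure of cells in 96-well plates to compound at five concentrations. At the GI50, growth is halved. TGI marks complete inhibition of growth.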

Columns and labels:
Experiment in all cases: NCI-60 cell line screen, 48 h
OVCAR-4 ovarian = test system: OVCAR-4 ovarian
SF-268 CNS = test system: SF-268 CNS
MCF7 breast = test system: MCF7 breast
K-562 leukemia = test system: K-562 leukemia
SW-620 colon = test system: SW-620 colon
BT-549 breast = test system: BT-549 breast
TK-10 renal = test system: TK-10 renal
U251 CNS = test system: U251 CNS
HOP-92 NSCLC = test system: HOP-92 NSCLC
COLO 205 colon = test system: COLO 205 colon
SN12C renal = test system: SN12C renal
LOX IMVI melanoma = test system: LOX IMVI melanoma
UACC-257 melanoma = test system: UACC-257 melanoma
ACHN renal = test system: ACHN renal
HOP-62 NSCLC = test system: HOP-62 NSCLC
A549 NSCLC = test system: A549 NSCLC
HS 578T breast = test system: HS 578T breast
MDA-MB-435 = test system: MDA-MB-435
NCI-H522 lung = test system: NCI-H522 lung
SK-MEL-5 melanoma = test system: SK-MEL-5 melanoma
RPMI-8226 leukemia = test system: RPMI-8226 leukemia
NCI-H23 lung = test system: NCI-H23 lung
HCT-15 colon = test system: HCT-15 colon
SR leukemia = test system: SR leukemia
HL-60(TB) leukemia = test system: HL-60(TB) leukemia
KM12 colon = test system: KM12 colon
T-47D breast = test system: T-47D breast
IGROV1 ovarian = test system: IGROV1 ovarian
SF-539 CNS = test system: SF-539 CNS
HCC-2998 colon = test system: HCC-2998 colon
DU-145 prostate = test system: DU-145 prostate
PC-3 prostate = test system: PC-3 prostate
NCI-H226 lung = test system: NCI-H226 lung
OVCAR-3 ovarian = test system: OVCAR-3 ovarian
HT29 colon = test system: HT29 colon
SK-OV-3 ovarian = test system: SK-OV-3 ovarian
MOLT-4 leukemia = test system: MOLT-4 leukemia
HCT-116 colon = test system: HCT-116 colon
OVCAR-5 ovarian = test system: OVCAR-5 ovarian
MDA-MB-231 breast = test system: MDA-MB-231 breast
SNB-19 CNS = test system: SNB-19 CNS
SNB-75 CNS = test system: SNB-75 CNS
CAKI-1 renal = test system: CAKI-1 renal
OVCAR-8 ovarian = test system: OVCAR-8 ovarian
786-0 renal = test system: 786-0 renal
NCI/ADR-RES ovarian = test system: NCI/ADR-RES ovarian
A498 renal = test system: A498 renal
NCI-H460 lung = test system: NCI-H460 lung
SK-MEL-2 melanoma = test system: SK-MEL-2 melanoma
M14 melanoma = test system: M14 melanoma
SF-295 CNS = test system: SF-295 CNS
MALME-3M melanoma = test system: MALME-3M melanoma
UACC-62 melanoma = test system: UACC-62 melanoma
RXF 393 renal = test system: RXF 393 renal
UO-31 renal = test system: UO-31 renal
CCRF-CEM leukemia = test system: CCRF-CEM leukemia
SK-MEL-28 melanoma = test system: SK-MEL-28 melanoma

How did the GI50 (OVCAR-4 ovarian) turn out when `C[C@H](CS(C)(=O)=O)Nc1ncc2cc(Oc3ccc(F)cc3F)c(=O)n(C)c2n1` was run?
Its GI50 is greater than 25 µM.

What about the TGI (OVCAR-4 ovarian) of the same compound?
Its TGI is greater than 25 µM.

What about the GI50 (SF-268 CNS) of the same compound?
Its GI50 is greater than 25 µM.

What about the TGI (SF-268 CNS) of the same compound?
Its TGI is greater than 25 µM.

What about the GI50 (MCF7 breast) of the same compound?
Its GI50 is greater than 25 µM.

What about the TGI (MCF7 breast) of the same compound?
The TGI was greater than 25 µM.

What about the GI50 (K-562 leukemia) of the same compound?
The GI50 was greater than 25 µM.

And the TGI (K-562 leukemia)?
The TGI was greater than 25 µM.

And the GI50 (SW-620 colon)?
The GI50 was greater than 25 µM.

And the TGI (SW-620 colon)?
Its TGI is greater than 25 µM.

And the GI50 (BT-549 breast)?
Its GI50 is greater than 25 µM.

What about the TGI (BT-549 breast) of the same compound?
Its TGI is greater than 25 µM.

And the GI50 (TK-10 renal)?
Its GI50 is greater than 25 µM.

And the TGI (TK-10 renal)?
The TGI was greater than 25 µM.

What about the GI50 (U251 CNS) of the same compound?
Its GI50 is greater than 25 µM.

What about the TGI (U251 CNS) of the same compound?
The TGI was greater than 25 µM.

What about the GI50 (HOP-92 NSCLC) of the same compound?
Its GI50 is greater than 10.4 µM.

What about the TGI (HOP-92 NSCLC) of the same compound?
Its TGI is greater than 25 µM.

What about the GI50 (COLO 205 colon) of the same compound?
The GI50 was greater than 25 µM.

What about the TGI (COLO 205 colon) of the same compound?
Its TGI is greater than 25 µM.

What about the GI50 (SN12C renal) of the same compound?
Its GI50 is greater than 25 µM.

And the TGI (SN12C renal)?
The TGI was greater than 25 µM.

What about the GI50 (LOX IMVI melanoma) of the same compound?
The GI50 was greater than 25 µM.

What about the TGI (LOX IMVI melanoma) of the same compound?
The TGI was greater than 25 µM.

And the GI50 (UACC-257 melanoma)?
The GI50 was greater than 25 µM.

What about the TGI (UACC-257 melanoma) of the same compound?
Its TGI is greater than 25 µM.

And the GI50 (ACHN renal)?
Its GI50 is greater than 25 µM.

What about the TGI (ACHN renal) of the same compound?
Its TGI is greater than 25 µM.

What about the GI50 (HOP-62 NSCLC) of the same compound?
The GI50 was greater than 25 µM.

And the TGI (HOP-62 NSCLC)?
The TGI was greater than 25 µM.

And the GI50 (A549 NSCLC)?
The GI50 was greater than 25 µM.

And the TGI (A549 NSCLC)?
Its TGI is greater than 25 µM.

What about the GI50 (HS 578T breast) of the same compound?
Its GI50 is greater than 25 µM.

And the TGI (HS 578T breast)?
Its TGI is greater than 25 µM.

What about the GI50 (MDA-MB-435) of the same compound?
The GI50 was greater than 25 µM.

And the TGI (MDA-MB-435)?
The TGI was greater than 25 µM.

What about the GI50 (NCI-H522 lung) of the same compound?
Its GI50 is greater than 25 µM.

What about the TGI (NCI-H522 lung) of the same compound?
Its TGI is greater than 25 µM.

And the GI50 (SK-MEL-5 melanoma)?
Its GI50 is greater than 25 µM.

And the TGI (SK-MEL-5 melanoma)?
The TGI was greater than 25 µM.

And the GI50 (RPMI-8226 leukemia)?
The GI50 was greater than 25 µM.

And the TGI (RPMI-8226 leukemia)?
The TGI was greater than 25 µM.

What about the GI50 (NCI-H23 lung) of the same compound?
The GI50 was greater than 25 µM.

And the TGI (NCI-H23 lung)?
Its TGI is greater than 25 µM.

What about the GI50 (HCT-15 colon) of the same compound?
Its GI50 is greater than 25 µM.

What about the TGI (HCT-15 colon) of the same compound?
The TGI was greater than 25 µM.

And the GI50 (SR leukemia)?
The GI50 was greater than 25 µM.

And the TGI (SR leukemia)?
The TGI was greater than 25 µM.

And the GI50 (HL-60(TB) leukemia)?
Its GI50 is greater than 25 µM.

What about the TGI (HL-60(TB) leukemia) of the same compound?
The TGI was greater than 25 µM.

And the GI50 (KM12 colon)?
Its GI50 is greater than 25 µM.

And the TGI (KM12 colon)?
The TGI was greater than 25 µM.

What about the GI50 (T-47D breast) of the same compound?
The GI50 was greater than 25 µM.

What about the TGI (T-47D breast) of the same compound?
The TGI was greater than 25 µM.

What about the GI50 (IGROV1 ovarian) of the same compound?
The GI50 was greater than 25 µM.

And the TGI (IGROV1 ovarian)?
The TGI was greater than 25 µM.

And the GI50 (SF-539 CNS)?
The GI50 was greater than 25 µM.

What about the TGI (SF-539 CNS) of the same compound?
Its TGI is greater than 25 µM.

And the GI50 (HCC-2998 colon)?
The GI50 was greater than 25 µM.

What about the TGI (HCC-2998 colon) of the same compound?
Its TGI is greater than 25 µM.

What about the GI50 (DU-145 prostate) of the same compound?
Its GI50 is greater than 25 µM.

And the TGI (DU-145 prostate)?
The TGI was greater than 25 µM.

What about the GI50 (PC-3 prostate) of the same compound?
Its GI50 is greater than 25 µM.

And the TGI (PC-3 prostate)?
Its TGI is greater than 25 µM.

And the GI50 (NCI-H226 lung)?
Its GI50 is greater than 25 µM.

What about the TGI (NCI-H226 lung) of the same compound?
The TGI was greater than 25 µM.

And the GI50 (OVCAR-3 ovarian)?
The GI50 was greater than 25 µM.

What about the TGI (OVCAR-3 ovarian) of the same compound?
Its TGI is greater than 25 µM.

And the GI50 (HT29 colon)?
Its GI50 is greater than 25 µM.

And the TGI (HT29 colon)?
The TGI was greater than 25 µM.

What about the GI50 (SK-OV-3 ovarian) of the same compound?
Its GI50 is greater than 25 µM.

What about the TGI (SK-OV-3 ovarian) of the same compound?
Its TGI is greater than 25 µM.

What about the GI50 (MOLT-4 leukemia) of the same compound?
Its GI50 is greater than 25 µM.

And the TGI (MOLT-4 leukemia)?
The TGI was greater than 25 µM.

And the GI50 (HCT-116 colon)?
The GI50 was greater than 25 µM.

What about the TGI (HCT-116 colon) of the same compound?
Its TGI is greater than 25 µM.

What about the GI50 (OVCAR-5 ovarian) of the same compound?
The GI50 was greater than 25 µM.

And the TGI (OVCAR-5 ovarian)?
The TGI was greater than 25 µM.

And the GI50 (MDA-MB-231 breast)?
Its GI50 is greater than 25 µM.

What about the TGI (MDA-MB-231 breast) of the same compound?
Its TGI is greater than 25 µM.

And the GI50 (SNB-19 CNS)?
The GI50 was greater than 25 µM.

And the TGI (SNB-19 CNS)?
Its TGI is greater than 25 µM.

What about the GI50 (SNB-75 CNS) of the same compound?
The GI50 was greater than 25 µM.

What about the TGI (SNB-75 CNS) of the same compound?
Its TGI is greater than 25 µM.

And the GI50 (CAKI-1 renal)?
Its GI50 is greater than 25 µM.

What about the TGI (CAKI-1 renal) of the same compound?
The TGI was greater than 25 µM.

And the GI50 (OVCAR-8 ovarian)?
The GI50 was greater than 25 µM.

And the TGI (OVCAR-8 ovarian)?
Its TGI is greater than 25 µM.

And the GI50 (786-0 renal)?
Its GI50 is greater than 25 µM.

What about the TGI (786-0 renal) of the same compound?
Its TGI is greater than 25 µM.

What about the GI50 (NCI/ADR-RES ovarian) of the same compound?
Its GI50 is greater than 25 µM.

And the TGI (NCI/ADR-RES ovarian)?
Its TGI is greater than 25 µM.

And the GI50 (A498 renal)?
Its GI50 is greater than 25 µM.

And the TGI (A498 renal)?
Its TGI is greater than 25 µM.

What about the GI50 (NCI-H460 lung) of the same compound?
Its GI50 is greater than 25 µM.

And the TGI (NCI-H460 lung)?
The TGI was greater than 25 µM.

And the GI50 (SK-MEL-2 melanoma)?
Its GI50 is greater than 25 µM.

What about the TGI (SK-MEL-2 melanoma) of the same compound?
The TGI was greater than 25 µM.

And the GI50 (M14 melanoma)?
Its GI50 is greater than 25 µM.

What about the TGI (M14 melanoma) of the same compound?
The TGI was greater than 25 µM.

And the GI50 (SF-295 CNS)?
Its GI50 is greater than 25 µM.

And the TGI (SF-295 CNS)?
Its TGI is greater than 25 µM.

What about the GI50 (MALME-3M melanoma) of the same compound?
The GI50 was greater than 25 µM.

What about the TGI (MALME-3M melanoma) of the same compound?
Its TGI is greater than 25 µM.

What about the GI50 (UACC-62 melanoma) of the same compound?
Its GI50 is greater than 25 µM.

What about the TGI (UACC-62 melanoma) of the same compound?
The TGI was greater than 25 µM.

What about the GI50 (RXF 393 renal) of the same compound?
The GI50 was greater than 25 µM.

What about the TGI (RXF 393 renal) of the same compound?
Its TGI is greater than 25 µM.

And the GI50 (UO-31 renal)?
The GI50 was greater than 25 µM.

What about the TGI (UO-31 renal) of the same compound?
The TGI was greater than 25 µM.

And the GI50 (CCRF-CEM leukemia)?
The GI50 was greater than 25 µM.

What about the TGI (CCRF-CEM leukemia) of the same compound?
The TGI was greater than 25 µM.

What about the GI50 (SK-MEL-28 melanoma) of the same compound?
The GI50 was greater than 25 µM.

What about the TGI (SK-MEL-28 melanoma) of the same compound?
Its TGI is greater than 25 µM.
